# Patent publication US8129371B2, “Thienopyrimidine and pyrazolopyrimidine compounds and their use as mTOR kinase and PI3 kinase inhibitors” (Wyeth LLC, priority 2007, dated 2012)
# What was measured:
# [1] = system: prostate line LNCap; test: In vitro cell culture growth assay (MTS), LNCap; type: cell-based; details: Homo sapiens, LNCaP, 72 h, LNCap cells, three days after drug treatment
# How it was run: (§1)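 Growth is reported as percent of vehicle-treated control grown in the same plate, with viability determined by metabolic conversion of MTS dye and absorbance read at 490 nm. Compounds were applied one day after plating and left for three days.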
# [2] = molecular target: T1, PI3K (Homo sapiens, UniProt P48736); test: Fluorescence polarization assay for PI3K; type: biochemical; details: PI3 Kinase γ; read-out: PI3 Kinase γ IC50
# T1 construct: PI3 Kinase γ IC50; other: PI3 Kinase γ; other: PI3 Kinase γ isoform, fluorescence polarization
# How it was run: (§2)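 PI3K was preincubated with compound (final DMSO 1%), and the reaction was started with PIP2/ATP substrate and run 30–60 min. It was stopped with a detector mix giving 10 nM red probe and 70 nM GST-GRP.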
# [3] = molecular target: T2, PI3K (Homo sapiens, UniProt P42336); test: Fluorescence polarization assay for PI3K; type: biochemical; details: PI3 Kinase α; read-out: PI3 Kinase α IC50
# T2 construct: PI3 Kinase α IC50; other: PI3 Kinase α; other: PI3 Kinase α isoform, fluorescence polarization
# How it was run: as §2
# [4] = molecular target: T3, Human mTOR (FLAG-TOR) (Homo sapiens, UniProt P42345); test: Human mTOR kinase assay with purified enzyme, DELFIA format; type: biochemical
# T3 construct: FLAG
# How it was run: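 Purified FLAG-mTOR in HEPES pH 7.4 buffer with 10 mM MnCl2 was preincubated with inhibitor and reacted 2 h at room temperature with His6-S6K substrate, then stopped with EDTA/EGTA. Phospho-T389 S6K detected by DELFIA with Eu-labelled antibody (40 ng/mL) after plate capture; inhibition computed from signal.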
# [5] = system: breast line MDA468; test: In vitro cell culture growth assay (MTS), MDA468; type: cell-based; details: Homo sapiens, 72 h, MDA468 cells, three days after drug treatment
# How it was run: as §1
# T2 sequence (P42336 whole entry, canonical isoform): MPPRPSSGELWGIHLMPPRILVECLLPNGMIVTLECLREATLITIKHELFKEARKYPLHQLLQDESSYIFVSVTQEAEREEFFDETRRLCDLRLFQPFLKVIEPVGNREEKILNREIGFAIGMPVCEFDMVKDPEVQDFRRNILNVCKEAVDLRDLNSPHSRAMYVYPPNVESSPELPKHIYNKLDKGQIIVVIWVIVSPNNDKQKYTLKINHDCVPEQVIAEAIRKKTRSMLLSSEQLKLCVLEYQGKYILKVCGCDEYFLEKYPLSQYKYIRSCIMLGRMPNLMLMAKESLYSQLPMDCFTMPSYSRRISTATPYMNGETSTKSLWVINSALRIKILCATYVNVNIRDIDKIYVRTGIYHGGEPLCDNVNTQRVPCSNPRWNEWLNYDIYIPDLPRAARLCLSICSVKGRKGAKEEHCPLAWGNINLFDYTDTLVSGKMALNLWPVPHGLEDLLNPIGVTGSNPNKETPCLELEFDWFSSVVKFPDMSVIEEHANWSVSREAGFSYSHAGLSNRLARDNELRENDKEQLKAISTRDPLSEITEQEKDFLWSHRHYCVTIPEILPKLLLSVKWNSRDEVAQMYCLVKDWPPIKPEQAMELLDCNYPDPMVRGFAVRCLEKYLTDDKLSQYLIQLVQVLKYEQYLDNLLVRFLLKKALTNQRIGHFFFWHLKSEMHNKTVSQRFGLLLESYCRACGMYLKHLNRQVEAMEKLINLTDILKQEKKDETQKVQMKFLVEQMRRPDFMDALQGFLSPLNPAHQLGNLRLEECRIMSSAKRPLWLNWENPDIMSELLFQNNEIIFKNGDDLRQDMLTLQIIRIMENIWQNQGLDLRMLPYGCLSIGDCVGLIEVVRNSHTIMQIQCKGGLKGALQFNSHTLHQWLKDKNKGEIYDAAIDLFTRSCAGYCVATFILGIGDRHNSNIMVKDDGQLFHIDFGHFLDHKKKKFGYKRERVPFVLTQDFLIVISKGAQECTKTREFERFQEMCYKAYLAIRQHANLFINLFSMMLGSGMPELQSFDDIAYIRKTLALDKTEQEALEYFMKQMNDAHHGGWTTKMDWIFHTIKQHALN
# T1 sequence (P48736 whole entry, canonical isoform): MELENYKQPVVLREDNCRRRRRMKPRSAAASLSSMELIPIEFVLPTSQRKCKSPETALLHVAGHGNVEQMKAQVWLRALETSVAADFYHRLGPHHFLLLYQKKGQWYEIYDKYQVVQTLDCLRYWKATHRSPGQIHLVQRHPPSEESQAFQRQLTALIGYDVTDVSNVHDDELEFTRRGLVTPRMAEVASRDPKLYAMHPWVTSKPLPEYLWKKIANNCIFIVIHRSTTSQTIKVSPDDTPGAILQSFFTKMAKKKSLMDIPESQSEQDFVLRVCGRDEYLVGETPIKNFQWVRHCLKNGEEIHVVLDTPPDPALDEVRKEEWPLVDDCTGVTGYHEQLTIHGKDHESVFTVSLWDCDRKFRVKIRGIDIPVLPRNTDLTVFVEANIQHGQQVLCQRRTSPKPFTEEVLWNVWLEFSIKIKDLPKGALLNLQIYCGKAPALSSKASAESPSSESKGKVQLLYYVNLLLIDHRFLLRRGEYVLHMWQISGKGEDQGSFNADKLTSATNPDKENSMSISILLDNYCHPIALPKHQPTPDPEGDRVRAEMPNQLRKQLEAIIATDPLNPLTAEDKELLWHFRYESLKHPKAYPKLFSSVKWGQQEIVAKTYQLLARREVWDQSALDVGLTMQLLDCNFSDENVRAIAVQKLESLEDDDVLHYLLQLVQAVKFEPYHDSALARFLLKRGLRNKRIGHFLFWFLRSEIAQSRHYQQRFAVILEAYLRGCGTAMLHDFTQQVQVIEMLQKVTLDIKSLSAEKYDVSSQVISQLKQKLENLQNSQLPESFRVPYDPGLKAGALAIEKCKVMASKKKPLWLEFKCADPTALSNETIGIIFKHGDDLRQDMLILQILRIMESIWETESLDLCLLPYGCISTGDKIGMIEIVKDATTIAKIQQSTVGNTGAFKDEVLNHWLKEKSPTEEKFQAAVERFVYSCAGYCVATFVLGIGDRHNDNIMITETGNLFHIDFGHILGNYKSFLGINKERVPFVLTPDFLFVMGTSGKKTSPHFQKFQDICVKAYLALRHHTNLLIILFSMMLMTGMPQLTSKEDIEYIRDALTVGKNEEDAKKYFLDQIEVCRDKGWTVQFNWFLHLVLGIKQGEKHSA
Structure (SMILES),IC50 [1],IC50 [2],IC50 [3],IC50 [4],IC50 [5]
"CC(C)n1ncc2c(N3CC4CCC(C3)O4)nc(-c3ccc(NC(=O)NC4CC4)cc3)nc21 [Example 142, 1-cyclopropyl-3-{4-[1-isopropyl-4-(8-oxa-3-azabicyclo[3.2.1]oct-3-yl)-1H-pyrazolo[3,4-d]pyrimidin-6-yl]phenyl}urea]",1 nM,5380 nM,953 nM,0.2 nM,48 nM
"CC(C)n1ncc2c(N3CC4CCC(C3)O4)nc(-c3ccc(NC(=O)Nc4ccccc4)cc3)nc21 [Example 147, 1-{4-[1-isopropyl-4-(8-oxa-3-azabicyclo[3.2.1]oct-3-yl)-1H-pyrazolo[3,4-d]pyrimidin-6-yl]phenyl}-3-phenylurea]",< 1 nM,475 nM,30 nM,0.185 nM,18 nM
"CC(C)n1ncc2c(N3CC4CCC(C3)O4)nc(-c3ccc(NC(=O)Nc4cccnc4)cc3)nc21 [Example 148, 1-{4-[1-isopropyl-4-(8-oxa-3-azabicyclo[3.2.1]oct-3-yl)-1H-pyrazolo[3,4-d]pyrimidin-6-yl]phenyl}-3-pyridin-3-ylurea]",< 1 nM,781 nM,49 nM,0.064 nM,9 nM
"CC(C)n1ncc2c(N3CC4CCC(C3)O4)nc(-c3ccc(NC(=O)Nc4ccncc4)cc3)nc21 [Example 149, 1-{4-[1-isopropyl-4-(8-oxa-3-azabicyclo[3.2.1]oct-3-yl)-1H-pyrazolo[3,4-d]pyrimidin-6-yl]phenyl}-3-pyridin-4-ylurea]",< 1 nM,342 nM,40 nM,0.125 nM,4 nM
"CNC(=O)Nc1ccc(-c2nc(N3CC4CCC(C3)O4)c3cnn(C4CCC(OC)(OC)CC4)c3n2)cc1 [Example 150, 1-{4-[1-(4,4-dimethoxycyclohexyl)-4-(8-oxa-3-azabicyclo[3.2.1]oct-3-yl)-1H-pyrazolo[3,4-d]pyrimidin-6-yl]phenyl}-3-methylurea]",2 nM,> 10000 nM,648 nM,0.745 nM,35 nM
"CNC(=O)Nc1ccc(-c2nc(N3CC4CCC(C3)O4)c3cnn(C4CCC5(CC4)OCCCO5)c3n2)cc1 [Example 151, 1-{4-[1-(1,5-dioxaspiro[5.5]undec-9-yl)-4-(8-oxa-3-azabicyclo[3.2.1]oct-3-yl)-1H-pyrazolo[3,4-d]pyrimidin-6-yl]phenyl}-3-methylurea]",8 nM,> 10000 nM,363 nM,1.19 nM,130 nM
"CNC(=O)Nc1ccc(-c2nc(N3CC4CCC(C3)O4)c3cnn(C4CCC5(CC4)OCC(C)(C)CO5)c3n2)cc1 [Example 152, 1-{4-[1-(3,3-dimethyl-1,5-dioxaspiro[5.5]undec-9-yl)-4-(8-oxa-3-azabicyclo[3.2.1]oct-3-yl)-1H-pyrazolo[3,4-d]pyrimidin-6-yl]phenyl}-3-methylurea]",3 nM,> 10000 nM,566 nM,0.6 nM,180 nM
"CNC(=O)Nc1ccc(-c2nc(N3CC4CCC(C3)O4)c3cnn(CCN(C)C)c3n2)cc1 [Example 153, 1-(4-{1-[2-(dimethylamino)ethyl]-4-(8-oxa-3-azabicyclo[3.2.1]oct-3-yl)-1H-pyrazolo[3,4-d]pyrimidin-6-yl}phenyl)-3-methylurea]",400 nM,4240 nM,966 nM,14.5 nM,2200 nM
"COC(=O)Nc1ccc(-c2nc(N3CC4CCC(C3)O4)c3cnn(CCN(C)C)c3n2)cc1 [Example 154, methyl (4-{1-[2-(dimethylamino)ethyl]-4-(8-oxa-3-azabicyclo[3.2.1]oct-3-yl)-1H-pyrazolo[3,4-d]pyrimidin-6-yl}phenyl)carbamate]",2900 nM,> 10000 nM,4280 nM,85 nM,19000 nM
"CN(C)CCn1ncc2c(N3CC4CCC(C3)O4)nc(-c3ccc(NC(=O)Nc4ccc(CCO)cc4)cc3)nc21 [Example 155, 1-(4-{1-[2-(dimethylamino)ethyl]-4-(8-oxa-3-azabicyclo[3.2.1]oct-3-yl)-1H-pyrazolo[3,4-d]pyrimidin-6-yl}phenyl)-3-[4-(2-hydroxyethyl)phenyl]urea]",1 nM,1170 nM,82 nM,1.75 nM,110 nM
"CN(C)CCn1ncc2c(N3CC4CCC(C3)O4)nc(-c3ccc(NC(=O)Nc4ccccc4)cc3)nc21 [Example 156, 1-(4-{1-[2-(dimethylamino)ethyl]-4-(8-oxa-3-azabicyclo[3.2.1]oct-3-yl)-1H-pyrazolo[3,4-d]pyrimidin-6-yl}phenyl)-3-phenylurea]",1 nM,1530 nM,160 nM,2.65 nM,68 nM
"CN(C)CCn1ncc2c(N3CC4CCC(C3)O4)nc(-c3ccc(NC(=O)Nc4cccnc4)cc3)nc21 [Example 157, 1-(4-{1-[2-(dimethylamino)ethyl]-4-(8-oxa-3-azabicyclo[3.2.1]oct-3-yl)-1H-pyrazolo[3,4-d]pyrimidin-6-yl}phenyl)-3-pyridin-3-ylurea]",50 nM,3120 nM,235 nM,2.7 nM,220 nM
"CN(C)CCn1ncc2c(N3CC4CCC(C3)O4)nc(-c3ccc(NC(=O)OCCO)cc3)nc21 [Example 158, 2-hydroxyethyl (4-{1-[2-(dimethylamino)ethyl]-4-(8-oxa-3-azabicyclo[3.2.1]oct-3-yl)-1H-pyrazolo[3,4-d]pyrimidin-6-yl}phenyl)carbamate]",680 nM,> 10000 nM,3520 nM,27 nM,5000 nM

# Further lines, with some results ahead:
IC50 [1],IC50 [2],IC50 [3],IC50 [4],Structure (SMILES),IC50 [5]
80 nM,3780 nM,1040 nM,1.27 nM,"COC(=O)Nc1ccc(-c2nc(N3CC4CCC(C3)O4)c3cnn(C(C)C)c3n2)cc1 [Example 138, methyl {4-[1-isopropyl-4-(8-oxa-3-azabicyclo[3.2.1]oct-3-yl)-1H-pyrazolo[3,4-d]pyrimidin-6-yl]phenyl}carbamate]",510 nM
5 nM,6170 nM,234 nM,0.115 nM,"CNC(=O)Nc1ccc(-c2nc(N3CC4CCC(C3)O4)c3cnn(C(C)C)c3n2)cc1 [Example 139, 1-{4-[1-isopropyl-4-(8-oxa-3-azabicyclo[3.2.1]oct-3-yl)-1H-pyrazolo[3,4-d]pyrimidin-6-yl]phenyl}-3-methylurea]",50 nM
1 nM,5900 nM,740 nM,0.14 nM,"CCNC(=O)Nc1ccc(-c2nc(N3CC4CCC(C3)O4)c3cnn(C(C)C)c3n2)cc1 [Example 140, 1-ethyl-3-{4-[1-isopropyl-4-(8-oxa-3-azabicyclo[3.2.1]oct-3-yl)-1H-pyrazolo[3,4-d]pyrimidin-6-yl]phenyl}urea]",32 nM
1 nM,6370 nM,648 nM,0.155 nM,"CC(C)n1ncc2c(N3CC4CCC(C3)O4)nc(-c3ccc(NC(=O)NCCF)cc3)nc21 [Example 141, 1-(2-fluoroethyl)-3-{4-[1-isopropyl-4-(8-oxa-3-azabicyclo[3.2.1]oct-3-yl)-1H-pyrazolo[3,4-d]pyrimidin-6-yl]phenyl}urea]",40 nM
10 nM,4580 nM,246 nM,0.076 nM,"CC(C)n1ncc2c(N3CC4CCC(C3)O4)nc(-c3ccc(NC(=O)NCCO)cc3)nc21 [Example 143, 1-(2-hydroxyethyl)-3-{4-[1-isopropyl-4-(8-oxa-3-azabicyclo[3.2.1]oct-3-yl)-1H-pyrazolo[3,4-d]pyrimidin-6-yl]phenyl}urea]",70 nM
23 nM,11000 nM,831 nM,0.27 nM,"CC(C)n1ncc2c(N3CC4CCC(C3)O4)nc(-c3ccc(NC(=O)OCCO)cc3)nc21 [Example 144, 2-hydroxyethyl {4-[1-isopropyl-4-(8-oxa-3-azabicyclo[3.2.1]oct-3-yl)-1H-pyrazolo[3,4-d]pyrimidin-6-yl]phenyl}carbamate]",270 nM
250 nM,> 10000 nM,3360 nM,2.75 nM,"CC(C)n1ncc2c(N3CC4CCC(C3)O4)nc(-c3ccc(NC(=O)OCCCO)cc3)nc21 [Example 145, 3-hydroxypropyl {4-[1-isopropyl-4-(8-oxa-3-azabicyclo[3.2.1]oct-3-yl)-1H-pyrazolo[3,4-d]pyrimidin-6-yl]phenyl}carbamate]",12000 nM
110 nM,7640 nM,2150 nM,2.9 nM,"CC(C)n1ncc2c(N3CC4CCC(C3)O4)nc(-c3ccc(NC(=O)OCC(O)CO)cc3)nc21 (stereo not drawn) [Example 146, 2,3-dihydroxypropyl {4-[1-isopropyl-4-(8-oxa-3-azabicyclo[3.2.1]oct-3-yl)-1H-pyrazolo[3,4-d]pyrimidin-6-yl]phenyl}carbamate]",580 nM
